The conditions of data set [1]: one week following ACLT, read at 3 weeks, vs free Dex; cited from earlier work.
For data set [2] the following is noted: IA 40 mg every 3 months for 2 years; cited from earlier work.
Data set [3] relates to chondrocytes. Conditions: incubation with chondrocytes in culture; cited from earlier work.
Data set [4] can be described thus: Zeta potential (Zetasizer Nano-ZS90). The format is physicochemical. To be noted: for Zeta potential (ζ): nanopure water, 0.45 mg/mL, Mean ± SD. The text has this:
• 1. Use the procedure in Section F to conjugate 4 moles of biotin-PEG-IOX with Avidin at its biotin binding sites to synthesize mAv-IOX. • 2. Use Zetasizer Nano-ZS90 to detect the zeta potential of unmodified Avidin and mAv-IOX in DI water; the zeta potential (Q, mV) of Avidin and mAv-IOX should be around 18.3±0.5 mV and 8.69±0.7 mV, respectively. • 3. Obtain 3 mm diameter×1 mm height cylindrical cartilage discs with intact superficial zone (SZ) from femoropatellar grooves of 1-2-week-old bovine knee joints and freeze them in PBS containing protease inhibitors (PI) until further use. • 4. […] Use a freezing point osmometer to balance the osmolality of these contrast agent solutions to 400±20 mOsm/kg by adding 1 M sodium chloride solution dropwise. • 5. […] Secure cartilage explants using low X-ray-absorption foam inside a 20.5 mm CT scan tube. Ensure that the cartilage explant stays secured in the foam during CT imaging. • 7. Take one of the equilibrated cartilage explants from contrast agent solution and gently using Kimwipes to remove solution from the tissue surface. • 8. Set CT35 with an isotropic voxel resolution of 10 μm, 70 kVp tube voltage, 113 μA current, and 200 ms integration time method. The CT data will be saved as DICOM format. ImageJ software will automatically display Hounsfield Unit (HU) by importing DICOM images. • 9. Process the CT imaging data acquired from CT35 using ImageJ software: (i) Go to Image→Stacks→Images to Stack to convert CT imaging data to a cartilage stack. (ii) Go to Image→Stacks→Reslice and select ‘starting at top’ to acquire a new stack showing vertical section of cartilage from superficial zone (SZ) to deep zone (DZ). […] The GAG content (mg/mg wet weight) is calculated as: […]
PEGylation of Avidin in 1:2 and 1:4 mAv was further confirmed by using H-Class Acquity UPLC (Waters Corp, Milford, MA) equipped with an Acquity UPLC BEH200 Size Exclusion Column (200 Å, 1.7 μm column, 4.6×300 mm) with 20 mM ammonium bicarbonate buffer as the mobile phase at 0.2 mL/min. Avidin was detected at 280 nm. […]

The nature of data set [5]: Hydrodynamic diameter estimated from molecular weight (Stokes-Einstein equation). Format: physicochemical. The text has this: As such, its intra-cartilage transport diffusivities (estimated using setup in FIG. 3A) were not affected either (Table 1). The hydrodynamic diameter of Avidin and mAv was estimated from their molecular weights using the Stokes-Einstein equation. The net size of mAv was within the 10 nm limit enabling it to penetrate through the full thickness of cartilage similar to unmodified Avidin.

The conditions of data set [6]: rabbit, in vivo; cited from earlier work.
The subject of data set [7] is bovine cartilage explants. To be noted: cited from earlier work.
Data set [8] can be described thus: Equilibrium uptake in cartilage explants (uptake ratio Ru). To be noted: 50% GAG depleted cartilage (mid-stage OA).
Protocol: Cartilage explants were harvested from the femoropatellar groove of 2-3-week-old bovine knees (Research 87, Boylston, MA) with a 3 mm diameter biopsy punch. The cylindrical plugs were then sliced to obtain the superficial 1 mm layer of cartilage, and frozen until use. […] Cartilage disks were equilibrated in 300 μL of 8.5 μM of labeled Avidin, 1:2 mAv or 1:4 mAv in presence of protease inhibitors for 24 h in a 96-well plate at 37° C. on gentle shaking to prevent formation of stagnant layers. To minimize evaporation, the empty wells in the plate were filled with DI water and the plate was wrapped in parafilm. At the end of the experiment, the surfaces of each disk were quickly blotted with Kimwipes and the wet weight was measured. The equilibrium bath fluorescence was measured using a plate reader (Synergy H1, Biotek). The final concentration was calculated based on a linear calibration correlating fluorescence to concentration of labeled Avidin. The moles of solutes absorbed into the cartilage were calculated using the difference between the initial and equilibrium concentration of the bath. The concentration of solutes inside was calculated by normalizing the number of moles inside cartilage to the wet weight of the tissue. The uptake ratio (Ru) was defined as the ratio of the concentration of solutes inside the tissue (Ctissue) to that of the solute in the equilibrium bath (Cbath). […]
The nature of data set [9]: Intra-cartilage diffusion kinetics (non-equilibrium one-dimensional diffusion, transport chamber). Conditions: 3 μM upstream, 400-600 μm cartilage disk; Mean ± SD.
Protocol: The interior walls of the transport chamber were equilibrated in 0.5% nonfat-dried bovine milk solution in PBS for 15 min to lessen non-specific binding of solutes to inner walls of the transport chamber. Subsequently, the compartments of chamber were rinsed with DI water. 3 μM solution of labeled Avidin or mAv was added to the upstream chamber. A 6 mm diameter cartilage disk of 400-600 μm thickness was placed between the upstream and downstream compartments. Concentration of fluorescently labeled solutes in the downstream chamber was measured over time by exciting the downstream solution using a 480 nm laser line and detecting the emission. Non-equilibrium diffusion curves were thereby obtained by plotting normalized downstream concentration (CD) to upstream concentration (Cu) over time. Effective Diffusivity (DEFF), which is the diffusivity of solutes in cartilage while binding interactions exist within the tissue was estimated as follows:
[formula] where L corresponds to cartilage thickness, and τLag is the time it takes to reach a steady state flux. τLag was estimated using the time-axis intercept of the linear slope of the normalized concentration versus time.
The test system of data set [10] is IL-1α treated cartilage explants. Briefly: IL-1α treated cartilage explant culture OA model: GAG loss (DMMB assay). Format: cell-based, bovine. To be noted: 16-day culture. An excerpt: Tissue explants for all treatment conditions were matched for depth and location to prevent any bias. […] Note that mAv here refers to 1:4 mAv configuration. Media was changed every 2 days and IL-1α was replenished at each medium change. […] IL-1α concentration was chosen as it represents a moderately aggressive cytokine treatment. […] After 16 days of culture, cartilage explants were weighed and digested in proteinase K. The cumulative GAGs released to the media and residual GAGs in the digested explants were measured using the DMMB assay. Nitrite content was measured using the Griess assay as an indicator of nitric oxide (NO) release from tissues. Equal volumes of Griess reagent and culture media collected every two days were mixed and incubated at room temperature for 15 min, and absorbance at 540 nm was measured using a plate reader. Sodium nitrite was used as a standard.

For data set [11] the test system is unchanged. As to the kind of experiment: IL-1α treated cartilage explant culture OA model: nitrite release (Griess assay). Format: cell-based, bovine. To be noted: continuous dose 100 nM, Day 8. The procedure:
3 mm diameter cartilage explants harvested from calf knee joints were equilibrated separately in serum free culture media containing 96.2% low-glucose DMEM, 1.0% HEPES, 1.0% NEAA, 1.0% PSA, 0.4% proline and 0.4% ascorbic acid for 48 h at 37° C., 5% CO2 for 2 days prior to treatment. Tissue explants for all treatment conditions were matched for depth and location to prevent any bias. To test the biological effectiveness of mAv-Dex, equilibrated cartilage explants were treated with or without IL-1α (2 ng/mL) for 16 days in combination with (i) a single dose of 100 nM free Dex, (ii) a continuous dose of 100 nM free Dex, (iii) a single dose of 10 μM free Dex (iv) a single dose of fast release mAv-Dex (10 μM Dex) or (v) a single dose of controlled release mAv-Dex (2:1:1) (10 μM Dex). […]
After 16 days of culture, cartilage explants were weighed and digested in proteinase K. The cumulative GAGs released to the media and residual GAGs in the digested explants were measured using the DMMB assay. Nitrite content was measured using the Griess assay as an indicator of nitric oxide (NO) release from tissues. Equal volumes of Griess reagent and culture media collected every two days were mixed and incubated at room temperature for 15 min, and absorbance at 540 nm was measured using a plate reader. […]
(Nitrite, measured by Griess reagent, commonly stands in for NO production.)

The subject of data set [12] is chondrocytes in cartilage explants. As to the kind of experiment: IL-1α treated cartilage explant culture OA model: chondrocyte viability (FDA/PI). The format is cell-based. Conditions: Day 16. Here is the method:
(§1) 3 mm diameter cartilage explants harvested from calf knee joints were equilibrated separately in serum free culture media containing 96.2% low-glucose DMEM, 1.0% HEPES, 1.0% NEAA, 1.0% PSA, 0.4% proline and 0.4% ascorbic acid for 48 h at 37° C., 5% CO2 for 2 days prior to treatment. Tissue explants for all treatment conditions were matched for depth and location to prevent any bias. To test the biological effectiveness of mAv-Dex, equilibrated cartilage explants were treated with or without IL-1α (2 ng/mL) for 16 days in combination with (i) a single dose of 100 nM free Dex, (ii) a continuous dose of 100 nM free Dex, (iii) a single dose of 10 μM free Dex (iv) a single dose of fast release mAv-Dex (10 μM Dex) or (v) a single dose of controlled release mAv-Dex (2:1:1) (10 μM Dex). To evaluate the effect of mAv carrier alone on cartilage health, a high one-time dose of 10 μM mAv, which is 10× higher than that used to deliver 10 μM Dex in condition (v) above, was also tested in the absence of IL-1α. Note that mAv here refers to 1:4 mAv configuration. Media was changed every 2 days and IL-1α was replenished at each medium change. […] IL-1α concentration was chosen as it represents a moderately aggressive cytokine treatment.
Chondrocyte viability was analyzed by staining cartilage explants with FDA (4.0 mg/mL) and PI (10.0 mg/mL) for live (green) and dead (red) cells, respectively. Slices were washed with PBS and imaged at 4× magnification (Nikon Eclipse Ts2R). The live and dead images were overlaid using ImageJ. At the end of the culture, tissue explants were incubated with media containing 1× resazurin sodium salt (alamarBlue assay) for 3 h in dark at 37° C. and 5% CO2. Cell metabolic activity was estimated by measuring fluorescence at 530 nm excitation and 590 nm emission wavelengths.

Data set [13] shares this test system. As to the kind of experiment: IL-1α treated cartilage explant culture OA model: chondrocyte metabolism (alamarBlue). Format: cell-based. Conditions: Day 16. Here is the method: 3 mm diameter cartilage explants harvested from calf knee joints were equilibrated separately in serum free culture media containing 96.2% low-glucose DMEM, 1.0% HEPES, 1.0% NEAA, 1.0% PSA, 0.4% proline and 0.4% ascorbic acid for 48 h at 37° C., 5% CO2 for 2 days prior to treatment. Tissue explants for all treatment conditions were matched for depth and location to prevent any bias. To test the biological effectiveness of mAv-Dex, equilibrated cartilage explants were treated with or without IL-1α (2 ng/mL) for 16 days in combination with (i) a single dose of 100 nM free Dex, (ii) a continuous dose of 100 nM free Dex, (iii) a single dose of 10 μM free Dex (iv) a single dose of fast release mAv-Dex (10 μM Dex) or (v) a single dose of controlled release mAv-Dex (2:1:1) (10 μM Dex). To evaluate the effect of mAv carrier alone on cartilage health, a high one-time dose of 10 μM mAv, which is 10× higher than that used to deliver 10 μM Dex in condition (v) above, was also tested in the absence of IL-1α. Note that mAv here refers to 1:4 mAv configuration. […]
Chondrocyte viability was analyzed by staining cartilage explants with FDA (4.0 mg/mL) and PI (10.0 mg/mL) for live (green) and dead (red) cells, respectively. […] Cell metabolic activity was estimated by measuring fluorescence at 530 nm excitation and 590 nm emission wavelengths.

The subject of data set [14] is IL-1α treated cartilage explants. Briefly: IL-1α treated cartilage explant culture OA model: Safranin-O histology. Format: cell-based, bovine. To be noted: 16 days. Here is the method:
as §1
Cartilage explants were fixed in 4% formalin, embedded in 0.75% agarose for ease of handling, dehydrated in a graded series of ethanol and xylenes, and embedded in paraffin. Transverse sections (to obtain full thickness cartilage slices with superficial and deep zones) were taken at 5 μm thickness. These sections were stained with 0.5% Safranin O, 0.02% Fast Green and Weigert's iron hematoxylin for GAG detection. Adjacent sections underwent antigen retrieval using 0.1% hyaluronidase, 0.1% pronase in PBS for 30 min at 37° C., then were immunostained for type II collagen using 1 μg/mL mouse IgG1 (clone II-II6B3) or normal mouse IgG1 as isotype control. Antibody detection was performed using a VectaStain Elite ABC kit with 3,3-diaminobenzidine staining. Stained sections were imaged using a Zeiss Axioplan2 equipped with an AxioCam HRc camera.

For data set [15] the following is noted: multiple IA injections, 2.5 mg every 3 days or 0.5 mg/kg; cited from earlier work.

This is an account of results in patent US12564639B2, “Cationic nanostructures for intra-cartilage delivery of contrast agents and diagnostic uses thereof” (Northeastern University, priority 2019, dated 2026).

“Av-Dex: Avidin covalently conjugated with 4 moles of Dexamethasone using its four biotin binding sites”: the “efficacy of single low dose IA injection” value in data set [1] is “suppressed injury induced joint inflammation, synovitis, incidence of osteophyte formation and restored trabecular properties at 3 weeks significantly greater than free Dex”.

For the molecule `CC1(C)O[C@@H]2C[C@H]3[C@@H]4CCC5=CC(=O)C=C[C@]5(C)[C@@]4(F)[C@@H](O)C[C@]3(C)[C@]2(C(=O)CO)O1` [TCA, triamcinolone acetonide], the cartilage loss entry in data set [2] is listed as “greater cartilage loss compared to saline”.

Turning to RRAAAARRAAAARRAAAARR [CPC+8], the uptake by chondrocytes entry in data set [3] is “not uptaken by the chondrocytes”.

For “1:2 mAv: multi-arm Avidin containing two biotinylated 8-arm PEGs”, the “Zeta potential (ζ)” value in [4] is 20.3 ± 0.3 mV. The “Diameter (net size)” value in [5] is about 7.6 nm.

Turning to “Avidin: cationic glycoprotein with four biotin binding sites”, the zeta potential entry in data set [4] (in DI water, 'should be around') is “around 18.3±0.5 mV”. In addition, the “Zeta potential (ζ)” value in data set [4] is given as 18.3 ± 0.5 mV. For the same molecule, the “Diameter (net size)” value in data set [5] was about 7.0 nm. Further, in [6], the intra-cartilage uptake ratio is 180 and the “presence in cartilage after IA administration” value was “present through the full thickness of cartilage two weeks following its IA administration”. Further, the “Avidin dose shown not to affect GAG loss, chondrocyte viability or biosynthesis rates” value in data set [7] is recorded as “less than 100 μM”. For the same molecule, the “drop of uptake following 50% GAG depletion compared to healthy condition” value in data set [8] is 13.2 ×. In addition, the “intra-cartilage effective diffusivity DEFF” value in data set [9] is reported as 8.4 ± 2.0 × 10^−8 cm^2/s.

Consider `C[C@@H]1C[C@H]2[C@@H]3CCC4=CC(=O)C=C[C@]4(C)[C@@]3(F)[C@@H](O)C[C@]2(C)[C@@]1(O)C(=O)CO` [Dex, dexamethasone], for which the “suppression of IL-1α induced GAG loss” value in data set [10] (continuous dose 100 nM) is given as “effectively suppress IL-1α induced GAG loss”; in data set [10] (single dose 100 nM), “not effective”; in data set [10] (single dose 10 μM Dex) it was “significantly suppressed IL-1α induced GAG loss”. In addition, in [11], the “lower nitrite levels compared to single dose of 100 nM Dex” value was determined as 3.5 ×. Moreover, the “rescue of chondrocyte viability” value in data set [12] (continuous dose 100 nM) is “rescued effectively”; in data set [12] (single dose 100 nM) it was “not with a single dose”; in data set [12] (single dose 10 μM Dex, listed as free Dex) it was “not as effective”. Further, the “rescue of IL-1α reduced cell metabolism rates” value in [13] is recorded as “not rescued”. The “Safranin-O GAG staining” value in data set [14] (continuous dose 100 nM) is given as “mostly rescued”; in [14] (single dose 100 nM) it was “marginally affected”; in data set [14] (single dose 10 μM Dex), “protected GAG content to a greater extent than at 100 nM”. Moreover, the “inflammation and cartilage protection” value in [15] was “significantly reduce inflammation and protect cartilage”. Further, in data set [15], the “toxicity of high multi-dose regimen” value is given as “systemic toxicity in vital organs”.
